Reference: patent US8461328B2, “Tricyclic heterocyclic compounds, compositions and methods of use thereof” (Genentech, Inc., priority 2010, dated 2013)

Key:
Format in all cases: biochemical
[1] = molecular target: T1, JAK1 (Homo sapiens, UniProt P23458); assay: JAK1 inhibition (Table 4); conditions: read-out: JAK1 Ki
T1 construct: made in house; host or cells: SF9 insect cells (baculovirus)

[2] = molecular target: T2, JAK2 (Homo sapiens, UniProt O60674); assay: JAK2 inhibition (Table 4); conditions: read-out: JAK2 Ki
T2 construct: made in house; host or cells: SF9 insect cells (baculovirus)

[3] = molecular target: T3, TYK2 (Homo sapiens, UniProt P29597); assay: TYK2 inhibition (Table 4)
T3 construct: made in house; host or cells: SF9 insect cells (baculovirus)
T3 sequence (P29597 873-1187): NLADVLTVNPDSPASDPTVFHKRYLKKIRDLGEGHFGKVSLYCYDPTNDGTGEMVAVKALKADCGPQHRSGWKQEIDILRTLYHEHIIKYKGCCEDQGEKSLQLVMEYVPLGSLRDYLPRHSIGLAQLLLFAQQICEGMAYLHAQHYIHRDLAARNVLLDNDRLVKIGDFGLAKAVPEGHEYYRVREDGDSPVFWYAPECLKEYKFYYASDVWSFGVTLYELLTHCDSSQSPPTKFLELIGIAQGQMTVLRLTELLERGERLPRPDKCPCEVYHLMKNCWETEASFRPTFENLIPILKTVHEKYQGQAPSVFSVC

[4] = molecular target: T4, JAK3 (Homo sapiens, UniProt P52333); assay: JAK3 inhibition (Table 4); conditions: read-out: JAK3 Ki
T4 construct: made in house; host or cells: SF9 insect cells (baculovirus)
T4 sequence (P52333 783-1124): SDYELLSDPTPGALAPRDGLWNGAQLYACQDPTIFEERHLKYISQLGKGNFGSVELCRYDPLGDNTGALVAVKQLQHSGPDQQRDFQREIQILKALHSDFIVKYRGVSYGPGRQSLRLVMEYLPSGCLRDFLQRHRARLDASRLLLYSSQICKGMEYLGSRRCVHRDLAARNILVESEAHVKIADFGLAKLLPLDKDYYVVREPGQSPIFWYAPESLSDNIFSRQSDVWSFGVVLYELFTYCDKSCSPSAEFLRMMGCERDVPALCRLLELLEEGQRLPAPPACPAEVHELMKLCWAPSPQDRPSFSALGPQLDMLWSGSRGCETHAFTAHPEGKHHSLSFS

T2 sequence (O60674 812-1132): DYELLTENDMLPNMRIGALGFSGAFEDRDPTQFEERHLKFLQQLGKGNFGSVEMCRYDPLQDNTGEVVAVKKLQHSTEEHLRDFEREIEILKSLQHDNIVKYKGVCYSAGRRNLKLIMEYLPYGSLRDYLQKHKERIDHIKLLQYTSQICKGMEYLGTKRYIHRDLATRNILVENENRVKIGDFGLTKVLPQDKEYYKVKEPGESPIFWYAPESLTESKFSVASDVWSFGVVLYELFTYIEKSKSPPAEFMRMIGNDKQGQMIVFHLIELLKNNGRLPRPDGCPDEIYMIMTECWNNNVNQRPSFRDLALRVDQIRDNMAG
T1 sequence (P23458 852-1154): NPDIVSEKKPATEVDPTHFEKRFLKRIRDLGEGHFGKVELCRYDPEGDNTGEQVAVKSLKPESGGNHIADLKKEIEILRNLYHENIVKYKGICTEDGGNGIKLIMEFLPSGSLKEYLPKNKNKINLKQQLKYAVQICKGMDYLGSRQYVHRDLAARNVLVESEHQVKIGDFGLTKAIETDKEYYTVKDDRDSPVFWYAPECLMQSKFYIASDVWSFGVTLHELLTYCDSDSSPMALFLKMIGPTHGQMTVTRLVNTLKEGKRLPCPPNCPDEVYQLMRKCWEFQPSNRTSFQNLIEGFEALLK

SMILES | Ki [1] [nM] | Ki [2] [nM] | Ki [3] [nM] | Ki [4] [nM]
O=C(Cc1nc2cnc3[nH]ccc3c2n1C1CCCOC1)NCCn1ccnc1 (racemic) [Example 975, N-(2-Imidazol-1-yl-ethyl)-2-[1-(tetrahydro-pyran-3-yl)-1,6-dihydro-1,3,5,6-tetraaza-as-indacen-2-yl]-acetamide] | 44.1 | 206 | 406 | 211
COCCNC(=O)O[C@H]1CC[C@H](n2cnc3cnc4[nH]ccc4c32)CC1 [Example 595, Trans (2-methoxy-ethyl)-carbamic acid 4-(6H-1,2,3,5,6-tetraaza-as-indacen-1-yl)-cyclohexyl ester] | 10.4 | 28.9 | 185 | 96.8
OC[C@]1(O)CC[C@@H](n2nnc3cnc4[nH]ccc4c32)CC1 [Example 716, Cis-1-Hydroxymethyl-4-(6H-1,2,3,5,6-pentaaza-as-indacen-1-yl)-cyclohexanol] | 10.6 | 23.3 | 74.3 | 167
c1cc(N2CCC[C@@H](n3cnc4cnc5[nH]ccc5c43)C2)ncn1 [Example 14, 1-((R)-1-Pyrimidin-4-yl-piperidin-3-yl)-1,6-dihydro-1,2,3,5,6-tetraaza-as-indacene] | 11.4 | 13.6 | 85.6 | 26.5
C[C@H](O)c1nc2cnc3[nH]ccc3c2n1[C@@H]1CCCN(C(=O)CC#N)C1 [Example 662, 3-{(R)-3-[2-((S)-1-Hydroxy-ethyl)-6H-1,2,3,5,6-tetraaza-as-indacen-1-yl]-piperidin-1-yl}-3-oxo-propionitrile] | 26.2 | 307 | 877 | 855
CC(=O)N1CC[C@@H](n2cnc3cnc4[nH]ccc4c32)C1 [Example 188, 1-[(R)-3-(6H-1,2,3,5,6-Tetraaza-as-indacen-1-yl)-pyrrolidin-1-yl]-ethanone] | 68.5 | 161 | 672 | 778
CC1CC(n2cnc3cnc4[nH]ccc4c32)CCN1Cc1ccccc1 (racemic) [Example 128, 1-(1-Benzyl-2-methyl-piperidin-4-yl)-1,6-dihydro-1,2,3,5,6-tetraaza-as-indacene] | 2.09 | 2.11 | 82.6 | 60.8
CN1CCC[C@H]1C(=O)N1CCC(n2nnc3cnc4[nH]ccc4c32)CC1 [Example 284, ((S)-1-Methyl-pyrrolidin-2-yl)-[4-(6H-1,2,3,5,6-pentaaza-as-indacen-1-yl)-piperidin-1-yl]-methanone] | 92.5 | 604 | 3430 | 2630
CNc1nc2cnc3[nH]ccc3c2n1C1CCN(S(C)(=O)=O)CC1 [Example 774, [1-(1-Methanesulfonyl-piperidin-4-yl) 1,6-dihydro-1,3,5,6-tetraaza-as-indacen-1-yl]-methyl-amine] | 40.7 | 82.7 | 141 | 242
N#Cc1cccc(CN2CCC(n3c(CC(=O)N4CCC(F)(F)CC4)nc4cnc5[nH]ccc5c43)CC2)n1 [Example 309] | 52 | 295 | 1940 | 93.4
Cc1cc(CN2CCC(n3c(C(C)O)nc4cnc5[nH]ccc5c43)C(F)C2)no1 (stereo not shown) [Example 911, 1-{1-[3-Fluoro-1-(5-methyl-isoxazol-3-ylmethyl)-piperidin-4-yl]-1,6-dihydro-1,3,5,6-tetraaza-as-indacen-2-yl}-ethanol] | 3.33 | 37.7 | 180 | 5.74
O=C(Cc1nc2cnc3[nH]ccc3c2n1C1CCCOC1)N1CCCOCC1 (racemic) [Example 980, 1-[1,4]Oxazepan-4-yl-2-[1-(tetrahydro-pyran-3-yl)-1,6-dihydro-1,3,5,6-tetraaza-as-indacen-2-yl]-ethanone] | 78.8 | 506 | 109 | 300
OCCN1CC[C@@H](n2cnc3cnc4[nH]ccc4c32)C1 [Example 184, 2-[(R)-3-(6H-1,2,3,5,6-Tetraaza-as-indacen-1-yl)-pyrrolidin-1-yl]-ethanol] | 94.7 | 250 | 644 | 1490
CC(C)NC(=O)Cc1nc2cnc3[nH]ccc3c2n1C1CCN(Cc2ccccc2)CC1 [Example 103, 2-[1-(1-Benzyl-piperidin-4-yl)-1,6-dihydro-1,3,5,6-tetraaza-as-indacen-2-yl]-N-isopropylacetamide] | 5.09 | 17.3 | 673 | 11.6
CC(C)(C)OC(=O)NC1CCCC(n2cnc3cnc4[nH]ccc4c32)C1 (single isomer, unassigned) [Example 477, [3-(6H-1,3,5,6-Tetraaza-as-indacen-1-yl)-cyclohexyl]-carbamic acid tert-butyl ester] | 40.7 | 171 | 799 | 236
Cc1nc2cnc3[nH]ccc3c2n1C1CN2CCC1CC2 (stereo not shown) [Example 928, 1-(1-Aza-bicyclo[2.2.2]oct-3-yl)-2-methyl-1,6-dihydro-1,3,5,6-tetraaza-as-indacene] | 125 | 206 | 887 | 449
CC(O)c1nc2cnc3[nH]ccc3c2n1C1CC2CCC1O2 (stereo not drawn) [Example 848, endo-1-[1-(7-Oxa-bicyclo[2.2.1]hept-2-yl)-1,6-dihydro-1,3,5,6-tetraaza-as-indacen-2-yl]-ethanol] | 120 | 156 | 216 | 71.9
c1cncc(CN2CCC(n3cnc4cnc5[nH]ccc5c43)CC2)c1 [Example 50, 1-(1-Pyridin-3-ylmethyl-piperidin-4-yl)-1,6-dihydro-1,3,5,6-tetraaza-as-indacene] | 2.48 | 4.84 | 88.8 | 18
O=C(N[C@H]1CC[C@H](n2cnc3cnc4[nH]ccc4c32)CC1)C1CC1 [Example 572, trans Cyclopropanecarboxylic acid [4-(6H-1,3,5,6-tetraaza-as-indacen-1-yl)-cyclohexyl]-amide] | 11.6 | 27 | 119 | 201
O=C(Cc1ccccc1)N1CC[C@@H](n2cnc3cnc4[nH]ccc4c32)C1 [Example 430, 2-Phenyl-1-[(R)-3-(6H-1,3,5,6-tetraaza-as-indacen-1-yl)-pyrrolidin-1-yl]-ethanone] | 58.9 | 162 | 507 | 1240
c1ccc(CN2CCC(n3nnc4cnc5[nH]ccc5c43)CC2)cc1 [Example 66, 1-(1-Benzyl-piperidin-4-yl)-1,6-dihydro-1,2,3,5,6-pentaaza-as-indacene] | 7.15 | 9.86 | 240 | 68.3
COC(=O)N1CCCC(n2c([C@@H](C)O)nc3cnc4[nH]ccc4c32)C1 (stereo partly drawn) [Example 670, (R)-3-[2-((R)-1-Hydroxy-ethyl)-6H-1,2,3,5,6-tetraaza-as-indacen-1-yl]-piperidine-1-carboxylic acid methyl ester] | 397 | 1750 | 1520 | 2170
OCC(O)c1nc2cnc3[nH]ccc3c2n1C1CCCCC1 (racemic) [Example 853, 1-(1-Cyclohexyl-1,6-dihydro-1,3,5,6-tetraaza-as-indacen-2-yl)-ethane-1,2-diol] | 1.98 | – | 5.29 | 20.4
